Results as given in PMC3871618 (PLoS ONE, 2013).
pIC50: −log10 of the molar value. Like-named read-outs stand apart in the source and are kept apart here. Each block holds one compound with its values, some of them ahead of it.

What was measured:
ABCB1 transporter [1] = target: T1, ABCB1 transporter (Homo sapiens, UniProt P08183); experiment: HOE (Hoechst 33342) accumulation in MDCKII-ABCB1 cells; assay type: cell-based; conditions: 8 µM HOE, end-point fluorescence at 30 min, 50% of each compound's own maximum inhibitory activity, read-out: IC50, inhibition of ABCB1-mediated efflux of HOE
T1 construct: expressed in transfected cells; host or cells: MDCKII (canine kidney) cells transduced with human ABCB1, from Prof; Piet Borst and Dr. Alfred Schinkel (The Netherlands Cancer Institute)
Description: (§1) To investigate the inhibitory activity of CDKi on ABCB1, the intracellular accumulation of HOE, a fluorescent ABCB1 substrate, was examined in both MDCKII-ABCB1 and MDCKII parent cell lines in the presence and absence of the tested compounds. The reduction in fluorescence intensity in ABCB1-transduced cells indicates the efflux activity of the ABCB1 transporter, its inhibition increases HOE accumulation and thus the intracellular fluorescence.
(§2) The assay was conducted as previously described and optimized for application in ABCB1-expressing cells. Briefly, MDCKII-ABCB1 and MDCKII parent cells were seeded at 5×10^4 cells per well on a 96-well culture plate and used for accumulation experiments after 24 h cultivation. The medium was removed and cells were washed twice with prewarmed phosphate buffered saline (PBS) at pH 7.4.

ABCB1 transporter [2] = target: T1, ABCB1 transporter; experiment: DNR accumulation in MDCKII-ABCB1 cells (flow cytometry), normalized to parental MDCKII; assay type: cell-based; conditions: 20 µM CDKi, 2 µM DNR
Description: Briefly, MDCKII-ABCB1 and MDCKII parent cells were seeded at 1.5×10^5 cells per well on a 12-well plate 24 h before the experiment. The medium was removed and the cells were washed with prewarmed PBS. The cells were then preincubated in Opti-MEM, with or without CDKi or LY at 37°C in 5% CO2 for 30 min. […] Accumulation was stopped by cooling the samples on ice, removing the medium and washing twice with ice-cold PBS. The cells were then detached from the plates with 10× trypsin-EDTA, resuspended in PBS with 2% FBS and transferred to Eppendorf tubes, which were placed on ice until analysis. […] The median fluorescence (MF) intensity of 10,000 measured cells was used to compare the fluorescence resulting from each of the treatments. […] The MF intensity of untreated cells was subtracted from fluorescence values obtained for all the measured samples.
To quantify the inhibitory effect of each tested compound on the ABCB1 transporter in the MDCKII-ABCB1 cell line, the ratio between the MF intensity with or without inhibitor was calculated and normalized to the effect in the parental MDCKII cell line according to the following equation [30]: [drawing 1]

MDCKII parent cells = experiment: XTT cytotoxicity, CDKi + DNR combination (Chou-Talalay); assay type: cell-based; conditions: 72 h; for DRI at Fa 0.5, drug II (CDKi) / DRI at Fa 0.75, drug II (CDKi) / DRI at Fa 0.9, drug II (CDKi): CDKi combined with DNR at constant ratio; for Fa above which combination with DNR is synergistic: constant ratio
Description: (§3) 1×10^4 MDCKII-ABCB1, 1×10^4 MDCKII parent, 2×10^4 HCT-8, or 2×10^4 HepG2 cells were grown in 96-well culture plates and incubated for 24 h. Individual CDKi diluted with growth medium were added to the exponentially growing cells and the resulting mixtures were incubated for 72 h at 37°C, 5% CO2. Cytotoxicity was then assessed using the XTT assay as follows: cells were incubated with 0.167 mg/mL XTT and 4 µM PMS in Opti-MEM for 2 h. The absorbance of the soluble formazan released was measured at 470 nm on a microplate reader (Tecan, Männedorf, Switzerland).
(§4) The combination index (CI) method of Chou-Talalay, based on the median-effect equation, was used to calculate combined drug effects. This approach offers quantitative definitions for additive, synergistic and antagonistic effects (CI values of 0.9–1.1, <0.9, and >1.1, respectively). Combination experiments were performed in a constant-ratio experimental design as recommended for the most efficient data analysis, and the generated data were used to quantify dose-reduction indices (DRI) for pairs of the tested drugs. DRI represents the fold-change of a focal effect when individual agents are used simultaneously relative to their separate effects, and their activity is synergistic if DRI > 1. […] The data acquired from these drug combination experiments were analyzed using CompuSyn ver. 3.0.1 software (ComboSyn Inc., Paramus, NJ, USA).

MDCKII-ABCB1 cells = experiment: as above; assay type: cell-based; conditions: for Combination index (CI) category, combination with DNR: constant ratio
Description: as §3, §4

HCT-8 cells = experiment: as above; conditions: HCT-8, 72 h; for Fa at which combination with DNR shows synergistic cytotoxic effects: constant ratio; for DRI at Fa 0.5, drug II (CDKi) / DRI at Fa 0.75, drug II (CDKi) / DRI at Fa 0.9, drug II (CDKi): CDKi combined with DNR at constant ratio
Description: as §3, §4

HepG2 cells = experiment: as above; assay type: cell-based, human; conditions: HepG2, 72 h; for Fa values for synergism of combination with DNR: constant ratio; for DRI at Fa 0.75, drug II (CDKi) / DRI at Fa 0.9, drug II (CDKi): CDKi combined with DNR at constant ratio
Description: as §3, §4

ABCG2 = test system: ABCG2; parameters: method as in PMID 22173067, PMID 24116053; conditions: in vitro and in situ; cited from earlier work
ABCB1 [3] = target: T2, ABCB1 (Homo sapiens, UniProt P08183); experiment: ABCB1-ATPase inhibition assay (verapamil-stimulated), Sf9 membranes; assay type: biochemical; parameters: purchased Solvo Biotechnology (Szeged, Hungary); host or cells: Sf9 insect cell membranes; conditions: 140 nM to 300 µM
Description: (§5) The drug efflux function of ABCB1 is linked to hydrolysis of ATP by ATPase, which is stimulated in the presence of ABCB1 substrates. In the activation assay, transported substrates can stimulate baseline vanadate-sensitive ATPase activity, whereas in the inhibition assay, which is carried out in the presence of a known activator of the transporter, inhibitors may reduce the maximal vanadate-sensitive ATPase activity. ATPase activity was measured by assessing the amount of phosphate liberated from ATP by the ABCB1 transporter using the […] ATPase kit for ABCB1 according to the manufacturer’s instructions. For this purpose, Sf9 cell membranes (4 µg protein per well) were mixed with each of the test compounds (singly) in solutions with concentrations ranging from 140 nM to 300 µM, then incubated at 37°C for 10 min in the presence or absence of 1.2 mM sodium orthovanadate. The reaction was started by adding 10 mM ATP solution (magnesium salt) to the reaction mixture, stopped 10 min later, and the absorbance at 590 nm was measured after a further 30 min incubation (GeniosPlus apparatus; Tecan, Männedorf, Switzerland). The ATPase activity in each sample was determined as the difference in liberated amounts of phosphate measured in the presence and absence of 1.2 mM sodium orthovanadate. Phosphate standards were prepared in each plate and verapamil served as a positive control for ABCB1 stimulation. The results are expressed as vanadate-sensitive ATPase activities.

ABCB1 [4] = target: T2, ABCB1; experiment: ABCB1-ATPase activation assay (baseline), Sf9 membranes; assay type: biochemical; parameters: purchased Solvo Biotechnology (Szeged, Hungary); host or cells: Sf9 insect cell membranes; conditions: for Effect on baseline vanadate-sensitive ATPase activity of ABCB1: activation assay, 140 nM to 300 µM; for ABCB1 substrate classification: from ATPase activity in Sf9 membranes overexpressing human ABCB1
Description: as §5

ABCB1 [5] = target: T2, ABCB1; experiment: HOE (Hoechst 33342) accumulation in MDCKII-ABCB1 cells; assay type: cell-based; parameters: expressed in transfected cells; host or cells: MDCKII (canine kidney) cells transduced with human ABCB1, from Prof; Piet Borst and Dr. Alfred Schinkel (The Netherlands Cancer Institute); conditions: human, probe Hoechst 33342 (HOE), 8 µM, CDKi applied at their respective IC50 concentrations, % as strongly as LY, read-out: Inhibition of HOE efflux relative to LY
Description: as §1, §2

[6] = MDCKII-ABCB1, 72 h, CDKi combined with DNR at constant ratio

T2 sequence (P08183 whole entry): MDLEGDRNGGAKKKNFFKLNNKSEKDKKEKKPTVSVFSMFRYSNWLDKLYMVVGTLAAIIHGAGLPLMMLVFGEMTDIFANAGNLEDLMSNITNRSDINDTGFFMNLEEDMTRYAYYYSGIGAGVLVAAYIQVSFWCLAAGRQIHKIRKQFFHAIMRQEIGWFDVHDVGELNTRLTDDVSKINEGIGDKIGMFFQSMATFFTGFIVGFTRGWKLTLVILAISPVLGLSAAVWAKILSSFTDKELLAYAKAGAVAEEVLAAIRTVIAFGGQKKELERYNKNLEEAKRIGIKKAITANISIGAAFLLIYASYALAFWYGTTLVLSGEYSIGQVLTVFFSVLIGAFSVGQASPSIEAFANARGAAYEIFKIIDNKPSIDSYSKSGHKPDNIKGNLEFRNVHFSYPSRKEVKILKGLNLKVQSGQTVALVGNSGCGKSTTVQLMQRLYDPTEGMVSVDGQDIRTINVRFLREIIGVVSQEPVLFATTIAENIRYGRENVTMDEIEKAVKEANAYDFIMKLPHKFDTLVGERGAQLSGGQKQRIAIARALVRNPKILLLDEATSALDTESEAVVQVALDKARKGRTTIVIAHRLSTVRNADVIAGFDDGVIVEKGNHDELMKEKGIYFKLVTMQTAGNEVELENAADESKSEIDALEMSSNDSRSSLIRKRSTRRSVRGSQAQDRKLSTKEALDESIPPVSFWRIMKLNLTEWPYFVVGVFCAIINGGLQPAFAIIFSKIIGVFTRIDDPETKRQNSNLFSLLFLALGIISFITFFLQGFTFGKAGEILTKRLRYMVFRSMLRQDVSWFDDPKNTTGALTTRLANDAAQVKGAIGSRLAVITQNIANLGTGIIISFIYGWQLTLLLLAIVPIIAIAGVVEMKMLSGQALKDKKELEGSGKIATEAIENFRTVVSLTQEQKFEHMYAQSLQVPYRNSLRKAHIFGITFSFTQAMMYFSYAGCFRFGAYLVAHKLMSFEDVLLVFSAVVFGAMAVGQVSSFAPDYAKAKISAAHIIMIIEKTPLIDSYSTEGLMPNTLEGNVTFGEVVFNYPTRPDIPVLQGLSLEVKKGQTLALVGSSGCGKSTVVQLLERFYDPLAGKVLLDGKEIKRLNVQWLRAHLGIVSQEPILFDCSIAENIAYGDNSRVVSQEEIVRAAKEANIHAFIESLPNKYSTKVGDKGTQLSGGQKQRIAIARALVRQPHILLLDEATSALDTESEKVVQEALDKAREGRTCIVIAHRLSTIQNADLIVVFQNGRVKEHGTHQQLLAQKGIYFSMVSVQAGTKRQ
T1 sequence (P08183 whole entry): as above

pIC50 (ABCB1 transporter [1]): 5.19
ABCB1 inhibition (DNR efflux) (ABCB1 transporter [2]): significant (P<0.05) ABCB1 inhibition
ABCB1 substrate classification (ABCB1 [4]): ABCB1 substrate and inhibitor
inhibition at 30 min (ABCB1 [5]): 48%
Compound: CC[C@H](CO)Nc1nc(NCc2ccccc2O)c2ncn(C(C)C)c2n1 [olomoucine II]
DRI at Fa 0.5, drug II (CDKi) (MDCKII parent cells): 2.51±0.08
DRI at Fa 0.75, drug II (CDKi) (MDCKII parent cells): 2.63±0.05
DRI at Fa 0.9, drug II (CDKi) (MDCKII parent cells): 2.75±0.02
Fa above which combination with DNR is synergistic (MDCKII parent cells): exceeded 0.4
Combination index (CI) category, combination with DNR (MDCKII-ABCB1 cells; MDCKII-ABCB1, 72 h): synergistic category of drug combination effects across almost the whole fraction of cells affected (Fa) range
DRI at Fa 0.5, drug II (CDKi) (MDCKII-ABCB1 cells; [6]): 2.83±0.27
DRI at Fa 0.75, drug II (CDKi) (MDCKII-ABCB1 cells; [6]): 2.84±0.19
DRI at Fa 0.9, drug II (CDKi) (MDCKII-ABCB1 cells; [6]): 2.86±0.10
Fa at which combination with DNR shows synergistic cytotoxic effects (HCT-8 cells): > 0.1
DRI at Fa 0.5, drug II (CDKi) (HCT-8 cells): 3.04±0.13
DRI at Fa 0.75, drug II (CDKi) (HCT-8 cells): 2.98±0.06
DRI at Fa 0.9, drug II (CDKi) (HCT-8 cells): 2.92±0.05
Fa values for synergism of combination with DNR (HepG2 cells): 0.75
DRI at Fa 0.75, drug II (CDKi) (HepG2 cells): 2.08±0.03
DRI at Fa 0.9, drug II (CDKi) (HepG2 cells): 2.38±0.04
ABCG2 inhibition (ABCG2): can inhibit ABCG2 in vitro and in situ
Effect on verapamil-stimulated vanadate-sensitive ATPase activity of ABCB1 (ABCB1 [3]): considerably and dose-dependently reduced
Effect on baseline vanadate-sensitive ATPase activity of ABCB1 (ABCB1 [4]): increased the baseline vanadate-sensitive ATPase activity

pIC50 (ABCB1 transporter [1]): 4.92
ABCB1 inhibition (DNR efflux) (ABCB1 transporter [2]): significant (P<0.05) ABCB1 inhibition
ABCB1 substrate classification (ABCB1 [4]): non-substrates of ABCB1
inhibition at 30 min (ABCB1 [5]): 86%
Compound: CC(C)[C@H](CO)Nc1nc(Nc2cccc(Cl)c2)c2ncn(C(C)C)c2n1 [purvalanol A]
DRI at Fa 0.5, drug II (CDKi) (MDCKII parent cells): 2.41±0.03
DRI at Fa 0.75, drug II (CDKi) (MDCKII parent cells): 2.40±0.04
DRI at Fa 0.9, drug II (CDKi) (MDCKII parent cells): 2.39±0.06
Fa above which combination with DNR is synergistic (MDCKII parent cells): exceeded 0.4
Combination index (CI) category, combination with DNR (MDCKII-ABCB1 cells; MDCKII-ABCB1, 72 h): synergistic category of drug combination effects across almost the whole fraction of cells affected (Fa) range
DRI at Fa 0.5, drug II (CDKi) (MDCKII-ABCB1 cells; [6]): 4.03±0.08
DRI at Fa 0.75, drug II (CDKi) (MDCKII-ABCB1 cells; [6]): 3.73±0.06
DRI at Fa 0.9, drug II (CDKi) (MDCKII-ABCB1 cells; [6]): 3.45±0.04
Fa at which combination with DNR shows synergistic cytotoxic effects (HCT-8 cells): > 0.75
DRI at Fa 0.75, drug II (CDKi) (HCT-8 cells): 1.77±0.01
DRI at Fa 0.9, drug II (CDKi) (HCT-8 cells): 1.68±0.05
Fa values for synergism of combination with DNR (HepG2 cells): 0.9
DRI at Fa 0.9, drug II (CDKi) (HepG2 cells): 1.68±0.03
ABCG2 inhibition (ABCG2): can inhibit ABCG2 in vitro and in situ
Effect on verapamil-stimulated vanadate-sensitive ATPase activity of ABCB1 (ABCB1 [3]): considerably and dose-dependently reduced

Compound: CC[C@H](CO)Nc1nc(NCc2ccccc2)c2ncn(C(C)C)c2n1 [roscovitine]
pIC50 (ABCB1 transporter [1]): 4.99
ABCB1 inhibition (DNR efflux) (ABCB1 transporter [2]): significant (P<0.05) ABCB1 inhibition
DRI at Fa 0.75, drug II (CDKi) (MDCKII parent cells): 2.29±0.05
DRI at Fa 0.9, drug II (CDKi) (MDCKII parent cells): 2.37±0.06
Fa above which combination with DNR is synergistic (MDCKII parent cells): > 0.45
DRI at Fa 0.75, drug II (CDKi) (MDCKII-ABCB1 cells): 3.08±0.02
DRI at Fa 0.9, drug II (CDKi) (MDCKII-ABCB1 cells): 2.96±0.03
Fa at which combination with DNR shows synergistic cytotoxic effects (HCT-8 cells): > 0.3
DRI at Fa 0.5, drug II (CDKi) (HCT-8 cells): 2.49±0.02
DRI at Fa 0.75, drug II (CDKi) (HCT-8 cells): 2.29±0.03
DRI at Fa 0.9, drug II (CDKi) (HCT-8 cells): 2.11±0.06
Fa values for synergism of combination with DNR (HepG2 cells): 0.65
DRI at Fa 0.75, drug II (CDKi) (HepG2 cells): 2.51±0.02
DRI at Fa 0.9, drug II (CDKi) (HepG2 cells): 2.56±0.02
Effect on verapamil-stimulated vanadate-sensitive ATPase activity of ABCB1 (ABCB1 [3]): considerably and dose-dependently reduced
Effect on baseline vanadate-sensitive ATPase activity of ABCB1 (ABCB1 [4]): increased the baseline vanadate-sensitive ATPase activity
inhibition at 30 min (ABCB1 [5]): 57%
